In patent US9744220B2, “Compositions and methods for treating inflammatory diseases” (priority 2013, dated 2017):

Tests used:
[1] = system: Trk; assay: Pharmacological Trk inhibition of sPDNF-stimulated H9c2 cardiomyocytes; assay type: cell-based, rat; settings: K252a 200 nM 1 hr pre-incubation, sPDNF 1 μg/ml 3 hr
Description: Pharmacological inhibition: H9c2 cardiomyocytes were stimulated with sPDNF (1 μg/ml, 3 hr) without pretreatment (sPDNF) or after pretreatment with K252a (200 nM, 1 hr) (K252a+sPDNF), and transcripts of MCP-1 (FIG. 9A) and FKN (FIG. 9B) quantified by qPCR. Chemokine gene expression was normalized to HPRT and fold change calculated relative to vehicle-treated cells. Bars represent mean±SD fold change expression of duplicate samples, *P<0.05 and **P<0.01; experiment performed three times, each giving similar results.
First, H9c2 cardiomyocytes were pre-incubated (1 hr) with the Trk antagonist K252a, which blocks Trk signaling by inhibiting Trk autophosphorylation (53), followed by stimulation (3 hr) with sPDNF (1 μg/ml) or vehicle PBS, and quantification of MCP-1 and FKN transcripts by qPCR.
H9c2 cells were pre-treated with 0.1% DMSO vehicle control or 200 nM K252a for 1 h prior to addition of sPDNF (1 μg/ml). Supernatants and cell monolayers were collected for quantification of secreted chemokines and cells were harvested for mRNA quantification by qPCR.

[2] = system: TrkA-positive PC12 cells; settings: bacterially-expressed truncated PDNF; cited from earlier work

| Molecule | effect on sPDNF stimulation of FKN transcripts [1] | effect on sPDNF stimulation of MCP-1 transcripts [1] | survival and differentiation of TrkA-positive PC12 cells [2] |
| --- | --- | --- | --- |
| COC(=O)[C@@]1(O)C[C@H]2O[C@]1(C)n1c3ccccc3c3c4c(c5c6ccccc6n2c5c31)C(=O)NC4 [K252a] | completely abrogated | completely abrogated |  |
| truncated PDNF equivalent to amino acids 1-425 of SEQ ID NO:2: truncated PDNF, amino acids 1-425 of SEQ ID NO:2 (protein, listed as Trypanosoma cruzi) MGKTVVVASRMFWLMFFVPLLLAICPSEPAYALAPGSSRVELFKRKNSTVPFEDKAGKVTERVVHSFRLPALVNVDGVMVAIADARYDTSNDNSLIDTVAKYSVDDGETWETQIAIKNSRVSSVSRVVDPTVIVKGNKLYVLVGSYYSSRSYWSSHGDARDWDILLAVGEVTKSTAGGKITASIKWGSPVSLKKFFPAEMEGMHTNQFLGGAGVAIVASNGNLVYPVQVTNKKKQVFSKIFYSEDDGKTWKFGKGRSDFGCSEPVALEWEGKLIINTRVDWKRRLVYESSDMEKPWVEAVGTVSRVWGPSPKSNQPGSQSSFTAVTIEGMRVMLFTHPLNFKGRWLRDRLNLWLTDNQRIYNVGQVSIGDENSAYSSVLYKDDKLYCLHEINTDEVYSLVFARLVGELRIIKSVLRSWKNWDSHL |  |  | did not |
| truncated PDNF corresponding to amino acids 1-445 of SEQ ID NO:2: bacterially-expressed truncated PDNF, amino acids 1-445 of SEQ ID NO:2 (protein, listed as Trypanosoma cruzi) MGKTVVVASRMFWLMFFVPLLLAICPSEPAYALAPGSSRVELFKRKNSTVPFEDKAGKVTERVVHSFRLPALVNVDGVMVAIADARYDTSNDNSLIDTVAKYSVDDGETWETQIAIKNSRVSSVSRVVDPTVIVKGNKLYVLVGSYYSSRSYWSSHGDARDWDILLAVGEVTKSTAGGKITASIKWGSPVSLKKFFPAEMEGMHTNQFLGGAGVAIVASNGNLVYPVQVTNKKKQVFSKIFYSEDDGKTWKFGKGRSDFGCSEPVALEWEGKLIINTRVDWKRRLVYESSDMEKPWVEAVGTVSRVWGPSPKSNQPGSQSSFTAVTIEGMRVMLFTHPLNFKGRWLRDRLNLWLTDNQRIYNVGQVSIGDENSAYSSVLYKDDKLYCLHEINTDEVYSLVFARLVGELRIIKSVLRSWKNWDSHLSSICTPADPAASSSESGCGP |  |  | promoted survival and differentiation |
